Measurements as given in patent US20040038888A1 (priority 2002, published 2004).

How the values were obtained:
[1] = test system: hippocampal neurogenesis; experiment: PACAP/BrdU infusion, BrdU/NeuN co-labelling of the dentate gyrus; type: in vivo, mouse; conditions: 600 nM pump concentration, 0.5 μl/hr, 7 days infusion plus 10 days survival, relative to vehicle
Procedure: 10 week old male mice (C57B1/2), maintained on a 12 hr light/dark cycle with food and water ad libidum, were infused in the right lateral ventricle with PACAP38 (Bachem), using a Alzet pump (1007D), for 3,5 days or 7 days at a daily dose of 31 ng/day (600 nM PACAP pump concentration infused at a rate of 0.5 μl/hr). Bromodeoxyuridine (BrdU) (50 mg/ml) was also included in the infusion vehicle (0.9% saline containing 1 mg/ml mouse serum albumin (Sigma)) to enable measurement of proliferation by quantitation of BrdU incorporation in the DNA. The group of infused with either PACAP/BrdU or vehicle/BrdU for 3,5 days and sacrificed at this time point. The group infused with either PACAP/BrdU or vehicle/BrdU for 7 days were allowed to survive a further 10 days. After the allotted time the mice were sacrificed, perfused with PBS the brains removed and frozen at −70° C. prior to sectioning for immumohistochemical analysis.
The procedure for doubling labeling of BrdU with NeuN was performed sequentially. […]
For all BrdU/NeuN co-labelling experiments, one to two sections per animal were analysed. […] The number of BrdU/NeuN-labelled cells per area of dentate granule cell layer was counted manually. […] Results of the dentate gyrus BrdU/NeuN counts are expressed as the average number of BrdU/NeuN-positive cells per dentate gyrus for each individual animal and reported as the mean ±SEM.

[2] = test system: AP-1; experiment: AP-1 transcription factor reporter assay; type: cell-based, mouse; conditions: PACAP 100 nM, 20 hours after induction, compared to non-induced cells
Procedure: Vectors: Vector DNA containing reporter elements for AP-1 and empty cloning vector (pTAL), with a luciferace reporter were purchased from Promega. The vectors were propagated in E. coli strain JM-109 (Promega) and purified with Qiagens maxi-prep Kit (Qiagen). The concentration was diluted to approximately 1 mg/ml per vector.
Transfection: Transient transfection was performed by seeding cells as above in suspension neurosphere cell culture and adherent neurosphere cell culture (1 to 3 day incubation) using 30,000 single cells/well. Each well was transiently transfected with […] plasmid, 0.6 μg Nupherin-neuron (Biomol) and 0,6 μl of Fugene-6 (Roche). Plasmid and Nupherin was mixed and diluted in DMEM/F12 to a total volume of 50 μl/well, and were incubated for 15 minutes prior to mixing with Fugene-6 that were diluted in DMEM/F12 to a total volume of 50 μl/well. The mix of plasmid and Nupherin and Fugene-6 were incubated for 20 min. The volume was adjusted to 100 μl prior to addition of 100 μl/well of transfection reagent.
Assay: The following day the transiently transfected cells were applied with PACAP (Bachem) to final concentration of 100 nM/well, in the presence or absence of MEK inhibitor, […] (Sigma-Aldrich). Luciferace activity was analysed with steady glow (Promega) according to the instructions of the manufacturer. Cells were analysed 20 hours after induction with PACAP.

[3] = test system: differentiating neural stem cells; experiment: Intracellular ATP assay, differentiating adult mouse NSC, adherent culture; type: cell-based; conditions: varying concentrations, adherent conditions, 3 days, relative to control, dose-dependent
Procedure: Adult mouse NSC were cultivated from the anterior lateral wall of the lateral ventricle of 5-6 week old mice as described in Example 2 (Method A).
Mouse neurospheres, cultured as described above, from passage 2, were seeded in DMEM/F12 supplemented with B27 and 1% Fetal Calf Serum into a 96-well plate coated with poly-D-lysine as single cells (30000 cells/well) and cultured over-night. The following day the medium was replaced with Neurosphere medium and PACAP added to the concentrations indicated. After 3 days incubation, intracellular ATP was measured using the ATP-SL kit from BioThema, Sweden, according to the manufacturer's instructions.

pituitary adenylate cyclase-activating polypeptide [PACAP]
neurogenesis in the ipsilateral dentate gyrus (BrdU/NeuN positive cells/dentate gyrus) [1]: increase in neurogenesis
AP-1 expression (luciferace activity) [2]: significantly induced
intracellular ATP levels, and hence cell number [3]: statistically significant increase in intracellular ATP levels
